Test results taken from ChEMBL document CHEMBL5506058, “Discovery of Quinazoline and Quinoline-Based Small Molecules as Utrophin Upregulators via AhR Antagonism for the Treatment of Duchenne Muscular Dystrophy” (J Med Chem, 2024).

Key:
C2C12 = assay: Cytotoxicity against mouse C2C12 cells assessed as reduction in cell viability at 0.78 to 100 uM measured after 24 hrs by MTT assay; format: toxicity, cell-based; details: c2c12, 24 h, dose 0.78-100 µM
[1] = Upregulation of utrophin expression in mouse C2C12 cells assessed as fold increase at 800 nM measured after 72 hrs by In-cell ELISA method; format: functional

Row | SMILES | Activity (C2C12) | fold change (FC) [1]
1 | CS(=O)(=O)c1ccc2nc(Nc3ccc(C(F)(F)F)cc3)ncc2c1 | Toxic | 1.06
2 | CCS(=O)(=O)c1ccc2nc(NCc3ccncc3)ncc2c1 | Toxic | 1.77
3 | COc1ccc(CNc2ccc3cc(S(C)(=O)=O)ccc3n2)cc1 | Toxic | 0.94
4 | CS(=O)(=O)c1ccc2nc(Nc3cc(O)cc(O)c3)ccc2c1 | Toxic | 1.08
5 | CS(=O)(=O)c1ccc2nc(NCc3ccc4c(c3)OCO4)ncc2c1 | Toxic | 0.92
6 | CCS(=O)(=O)c1ccc2nc(Nc3cc(OC)cc(OC)c3)ccc2c1 | Toxic | 1.17
7 | CS(=O)(=O)c1ccc2nc(Nc3ccc(C(F)(F)F)cc3)ccc2c1 | Toxic | 0.93
8 | CCS(=O)(=O)c1ccc2nc(Nc3ccc4c(c3)OCO4)ncc2c1 | Toxic | 0.6
9 | CCS(=O)(=O)c1ccc2nc(NCc3ccc(OC)cc3)ccc2c1 | Toxic | 0.89
10 | CCS(=O)(=O)c1ccc2nc(NCCc3cc4ccccc4[nH]3)ccc2c1 | Toxic | 1.3
11 | COc1cc(Nc2ncc3cc(S(C)(=O)=O)ccc3n2)cc(OC)c1 | Toxic | 1.6
12 | CC(C)(C)c1ccc(CNc2ccc3cc(S(C)(=O)=O)ccc3n2)cc1 | Toxic | 0.99
13 | CS(=O)(=O)c1ccc2nc(NCCc3cc4ccccc4[nH]3)ncc2c1 | Toxic | 1.81
14 | CCS(=O)(=O)c1ccc2nc(Nc3ccc(C(C)(C)C)cc3)ncc2c1 | Toxic | 1.13
15 | CCS(=O)(=O)c1ccc2nc(NCc3ccc4c(c3)OCO4)ccc2c1 | Toxic | 0.98
16 | CS(=O)(=O)c1ccc2nc(Nc3ccc(F)cc3)ccc2c1 | Toxic | 0.93
17 | CS(=O)(=O)c1ccc2cnc(NCc3ccc(F)cc3)nc2c1 | Toxic | 0.95
18 | CCS(=O)(=O)c1ccc2nc(Nc3ccc(F)cc3)ccc2c1 | Toxic | 0.98
19 | CCS(=O)(=O)c1ccc2nc(NCCc3cc4ccccc4[nH]3)ncc2c1 | Toxic | 1.73
20 | CCS(=O)(=O)c1ccc2nc(NCc3ccc(O)cc3)ncc2c1 | Toxic | 1.12
21 | COc1ccc(CNc2ncc3cc(S(C)(=O)=O)ccc3n2)cc1 | Non-Toxic | 1.11
22 | CS(=O)(=O)c1ccc2nc(Nc3ccc4c(c3)OCO4)ccc2c1 | Toxic | 1

Row | SMILES | Activity (C2C12) | fold change (FC) [1]
23 | CCS(=O)(=O)c1ccc2nc(Nc3ccc(C(F)(F)F)cc3)ccc2c1 | Toxic | 0.94
24 | CCS(=O)(=O)c1ccc2nc(Nc3ccc(C(F)(F)F)cc3)ncc2c1 | Toxic | 1.25
25 | CCS(=O)(=O)c1ccc2nc(NCc3ccc4c(c3)OCO4)ncc2c1 | Toxic | 0.91
26 | CCS(=O)(=O)c1ccc2nc(Nc3ccc(F)cc3)ncc2c1 | Toxic | 1.23
27 | COc1cc(CNc2ncc3cc(S(C)(=O)=O)ccc3n2)cc(OC)c1 | Toxic | 1.67
28 | CCS(=O)(=O)c1ccc2nc(NCc3cc(OC)cc(OC)c3)ncc2c1 | Toxic | 1.62
29 | CCS(=O)(=O)c1ccc2nc(NCc3ccc(C(F)(F)F)cc3)ccc2c1 | Toxic | 1.16
30 | CC(C)(C)c1ccc(Nc2ccc3cc(S(C)(=O)=O)ccc3n2)cc1 | Toxic | 0.61
31 | CCS(=O)(=O)c1ccc2nc(Nc3ccc(OC)cc3)ncc2c1 | Toxic | 1.09
32 | CS(=O)(=O)c1ccc2nc(NCCc3cc4ccccc4[nH]3)ccc2c1 | Toxic | 1.78
33 | CC(C)(C)c1ccc(CNc2ncc3cc(S(C)(=O)=O)ccc3n2)cc1 | Toxic | 1.19
34 | CS(=O)(=O)c1ccc2nc(NCc3ccc(C(F)(F)F)cc3)ncc2c1 | Toxic | 1.27
35 | CCS(=O)(=O)c1ccc2cnc(NCc3ccc(F)cc3)nc2c1 | Toxic | 0.67
36 | CCS(=O)(=O)c1ccc2nc(NCc3ccncc3)ccc2c1 | Toxic | 1.73
37 | COc1ccc(Nc2ncc3cc(S(C)(=O)=O)ccc3n2)cc1 | Toxic | 1.05
38 | CS(=O)(=O)c1ccc2nc(NCc3ccc(F)cc3)ccc2c1 | Toxic | 1
39 | CS(=O)(=O)c1ccc2nc(Nc3ccc4c(c3)OCO4)ncc2c1 | Toxic | 0.92
40 | CCS(=O)(=O)c1ccc2nc(Nc3ccc(O)cc3)ccc2c1 | Toxic | 0.93
41 | COc1ccc(Nc2ccc3cc(S(C)(=O)=O)ccc3n2)cc1 | Toxic | 0.87
42 | CCS(=O)(=O)c1ccc2nc(NCc3ccc(F)cc3)ncc2c1 | Toxic | 1.4
43 | CS(=O)(=O)c1ccc2nc(NCc3ccc4c(c3)OCO4)ccc2c1 | Toxic | 0.97
44 | CS(=O)(=O)c1ccc2nc(NCc3ccncc3)ccc2c1 | Toxic | 1.42

Row | SMILES | Activity (C2C12) | fold change (FC) [1]
45 | CCS(=O)(=O)c1ccc2cnc(NCc3ccc(C(F)(F)F)cc3)nc2c1 | Toxic | 1.51
46 | CCS(=O)(=O)c1ccc2nc(Nc3ccc4c(c3)OCO4)ccc2c1 | Toxic | 0.98
47 | CCS(=O)(=O)c1ccc2nc(NCc3ccc(C(C)(C)C)cc3)ncc2c1 | Toxic | 1.07
48 | CS(=O)(=O)c1ccc2nc(Nc3ccc(O)cc3)ccc2c1 | Toxic | 1.03
49 | CS(=O)(=O)c1ccc2nc(NCc3ccc(C(F)(F)F)cc3)ccc2c1 | Toxic | 1.27
50 | COc1cc(Nc2ccc3cc(S(C)(=O)=O)ccc3n2)cc(OC)c1 | Toxic | 1.32
51 | CCS(=O)(=O)c1ccc2nc(Nc3cc(O)cc(O)c3)ccc2c1 | Toxic | 1.02
52 | CS(=O)(=O)c1ccc2nc(NCc3ccc(O)cc3)ncc2c1 | Toxic | 1.09
53 | COc1cc(CNc2ccc3cc(S(C)(=O)=O)ccc3n2)cc(OC)c1 | Toxic | 1.26
54 | CS(=O)(=O)c1ccc2cnc(NCc3ccc(C(F)(F)F)cc3)nc2c1 | Toxic | 1.8
55 | CCS(=O)(=O)c1ccc2nc(NCc3cc(OC)cc(OC)c3)ccc2c1 | Toxic | 1.42
56 | CCS(=O)(=O)c1ccc2nc(Nc3ccc(C(C)(C)C)cc3)ccc2c1 | Toxic | 0.93
57 | CCS(=O)(=O)c1ccc2nc(NCc3ccc(F)cc3)ccc2c1 | Toxic | 1.2
58 | CCS(=O)(=O)c1ccc2nc(Nc3ccc(OC)cc3)ccc2c1 | Toxic | 1.09
59 | CCS(=O)(=O)c1ccc2nc(NCc3ccc(OC)cc3)ncc2c1 | Toxic | 1.01
60 | CC(C)(C)c1ccc(Nc2ncc3cc(S(C)(=O)=O)ccc3n2)cc1 | Toxic | 1.01
61 | CCS(=O)(=O)c1ccc2nc(NCc3ccc(C(C)(C)C)cc3)ccc2c1 | Toxic | 0.9
62 | CCS(=O)(=O)c1ccc2nc(NCc3ccc(O)cc3)ccc2c1 | Toxic | 0.98
63 | CCS(=O)(=O)c1ccc2nc(Nc3cc(OC)cc(OC)c3)ncc2c1 | Toxic | 1.52
64 | CS(=O)(=O)c1ccc2nc(Nc3ccc(O)cc3)ncc2c1 | Toxic | 1.06
65 | CCS(=O)(=O)c1ccc2nc(Nc3ccc(O)cc3)ncc2c1 | Toxic | 1.08
66 | CS(=O)(=O)c1ccc2nc(NCc3ccc(O)cc3)ccc2c1 | Toxic | 1.07
